Measured values as given in patent publication US20230407373A1 (priority 2020, published 2023).
Like-named read-outs stand apart in the source and are kept apart here.

What was measured:
[1] = test system: SARS-CoV-2 gRNA and sgRNAs; type: binding; details: for target (unweighted spectral count in RNP capture): Probe II capture, LC-MS/MS LFQ; for background (unweighted spectral count in control): no-probe control pull-down, used as background for Probe II
[2] = test system: gRNA of HCoV-OC43; type: binding; details: type g_36_m, 36 hpi, Probe I; for target (spectral count): HCoV-OC43-infected HCT-8 cells; for background (spectral count): uninfected-probe control
[3] = test system: HCoV-OC43 gRNA and sgRNA; type: binding; details: for target (unweighted spectral count): OC43 Probe II, infected cells
[4] = test system: SARS-CoV-2; type: cell-based; details: Calu-3 cells, 50 nM siRNA, RT-qPCR, relative to siNC
[5] = test system: SARS-CoV-2 gRNA; type: binding; details: […]; LC-MS/MS; Probe I sample (first 199 lines of Table 2)

Substance	target (unweighted spectral count in RNP capture) [1]	background (unweighted spectral count in control) [1]	target (spectral count) [2]	background (spectral count) [2]	target (unweighted spectral count, OC43 Probe II capture) ([3]; 24 hpi, type n_24_v, tested against no-probe control, FDR<10%)	target (unweighted spectral count, OC43 Probe II) ([3]; type n_48_v, 48 hpi, OC43 Probe II capture on infected cells)	background (unweighted spectral count, no-probe control) ([3]; type n_48_v, 48 hpi, no-probe control on infected cells)	change in viral RNA levels (gRNA, N sgRNA) after siRNA depletion [4]	target (unweighted spectral count of the protein in the RNP capture) [5]	target (unweighted spectral count) ([3]; 12 hpi (type n_12_v), tested against no-probe control)	target (unweighted spectral count) ([3]; 24 hpi (type n_24_v), tested against no-probe control)
TRIM25: host protein, UniProt Q14258	20	1	14	1	5	13	3	increased viral RNAs			
YBX3: host protein, UniProt P16989	73	1	13	2					41	7	10
